Assay results published in BindingDB's records for doi:10.1016/j.bmcl.2003.08.056 (Merck Research Laboratories, 2003).

What was measured:
[1] = biological target: T1, cGMP-inhibited 3',5'-cyclic phosphodiesterase 3A [388-1112] (Homo sapiens, UniProt Q14432); assay: PDE SPA Enzyme Inhibition Assay
T1 construct: 388-1112
Experimental: (§1) PDE activity was monitored by measuring the hydrolysis of [3H]-cAMP to [3H]-AMP using scintillation proximity assay (SPA). [3H]-AMP was captured by the SPA beads, and quantified on a TopCount plate reader. Data was analyzed in Graph Pad Prism software.

[2] = biological target: T2, cGMP-inhibited 3',5'-cyclic phosphodiesterase 3B [387-1112] (Homo sapiens, UniProt Q13370); assay: PDE SPA Enzyme Inhibition Assay
T2 construct: 387-1112
Experimental: as §1

T2 sequence (Q13370 387-1112): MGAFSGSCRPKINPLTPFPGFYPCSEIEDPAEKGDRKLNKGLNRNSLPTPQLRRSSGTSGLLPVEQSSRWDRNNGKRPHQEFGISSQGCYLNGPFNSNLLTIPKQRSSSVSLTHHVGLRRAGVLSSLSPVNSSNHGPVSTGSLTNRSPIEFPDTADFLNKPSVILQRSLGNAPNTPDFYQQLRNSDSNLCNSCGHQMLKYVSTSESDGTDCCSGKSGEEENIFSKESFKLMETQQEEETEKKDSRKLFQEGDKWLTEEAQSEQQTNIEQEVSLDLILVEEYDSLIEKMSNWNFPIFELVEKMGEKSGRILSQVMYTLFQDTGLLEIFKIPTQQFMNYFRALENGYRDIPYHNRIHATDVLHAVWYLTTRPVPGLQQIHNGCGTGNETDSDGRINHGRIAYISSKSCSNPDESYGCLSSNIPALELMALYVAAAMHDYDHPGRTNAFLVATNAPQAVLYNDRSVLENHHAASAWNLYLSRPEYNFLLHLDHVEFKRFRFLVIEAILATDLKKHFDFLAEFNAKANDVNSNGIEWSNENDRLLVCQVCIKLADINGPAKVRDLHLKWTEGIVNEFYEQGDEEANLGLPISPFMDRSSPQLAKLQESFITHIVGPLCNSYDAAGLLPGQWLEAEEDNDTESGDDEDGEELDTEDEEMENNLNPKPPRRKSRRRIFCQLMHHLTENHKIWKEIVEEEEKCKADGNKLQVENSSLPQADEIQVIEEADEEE
T1 sequence (Q14432 388-1112): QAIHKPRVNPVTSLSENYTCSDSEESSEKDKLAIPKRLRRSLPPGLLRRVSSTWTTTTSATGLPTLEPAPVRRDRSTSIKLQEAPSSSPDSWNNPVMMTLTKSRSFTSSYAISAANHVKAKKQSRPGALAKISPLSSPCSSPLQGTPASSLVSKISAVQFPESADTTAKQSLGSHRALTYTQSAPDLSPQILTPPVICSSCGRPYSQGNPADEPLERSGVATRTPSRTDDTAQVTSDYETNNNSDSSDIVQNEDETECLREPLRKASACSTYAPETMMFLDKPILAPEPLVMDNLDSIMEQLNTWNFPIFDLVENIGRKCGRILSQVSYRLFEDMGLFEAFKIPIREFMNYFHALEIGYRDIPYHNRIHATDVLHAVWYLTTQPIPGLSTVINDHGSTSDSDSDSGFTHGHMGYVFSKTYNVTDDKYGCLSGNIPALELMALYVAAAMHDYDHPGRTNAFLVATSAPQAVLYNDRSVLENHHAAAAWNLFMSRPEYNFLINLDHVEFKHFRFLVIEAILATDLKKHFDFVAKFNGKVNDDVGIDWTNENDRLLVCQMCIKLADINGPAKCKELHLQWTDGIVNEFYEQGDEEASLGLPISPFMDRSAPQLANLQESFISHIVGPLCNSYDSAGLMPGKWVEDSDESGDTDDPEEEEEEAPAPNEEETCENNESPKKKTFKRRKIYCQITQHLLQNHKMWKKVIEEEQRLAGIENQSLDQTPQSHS

| IC50 [1] [nM] | IC50 ([2]; pH 7.5, 22 °C) [nM] | IC50 [2] [nM] | SMILES |
| --- | --- | --- | --- |
| 0.11 | 0.049 |  | C[C@@H]1CC(=O)NN=C1c1ccc(NC2=C(Cc3cccc(-c4cccc([N+](=O)[O-])c4)c3)C(=O)CCC2)cc1 [(5R)-5-methyl-6-{4-[(2-{[3-(3-nitrophenyl)phenyl]methyl}-3-oxocyclohex-1-en-1-yl)amino]phenyl}-2,3,4,5-tetrahydropyridazin-3-one] |
| 3.7 |  | 0.61 | Cc1cc(C2=NNC(=O)CC2C)ccc1NC1=C(Cc2ccccc2)C(=O)CCC1 (stereo not given) [6-{4-[(2-benzyl-3-oxocyclohex-1-en-1-yl)amino]-3-methylphenyl}-5-methyl-2,3,4,5-tetrahydropyridazin-3-one] |
| 1.2 |  | 0.26 | CC1CC(=O)NN=C1c1ccc(NC2=C(Cc3ccccc3)C(=O)CCC2)c(F)c1 (stereo not given) [6-{4-[(2-benzyl-3-oxocyclohex-1-en-1-yl)amino]-3-fluorophenyl}-5-methyl-2,3,4,5-tetrahydropyridazin-3-one] |
| 7.6 |  | 0.33 | CC1(C)C(=O)NN=C1c1ccc(NC2=C(Cc3cccc(C#N)c3)C(=O)CCC2)c(F)c1F [3-[(2-{[4-(4,4-dimethyl-5-oxo-4,5-dihydro-1H-pyrazol-3-yl)-2,3-difluorophenyl]amino}-6-oxocyclohex-1-en-1-yl)methyl]benzonitrile] |
| 0.11 | 0.068 |  | C[C@@H]1CC(=O)NN=C1c1ccc(NC2=C(Cc3cccc(-c4ccsc4)c3)C(=O)CCC2)cc1 [(5R)-5-methyl-6-{4-[(3-oxo-2-{[3-(thiophen-3-yl)phenyl]methyl}cyclohex-1-en-1-yl)amino]phenyl}-2,3,4,5-tetrahydropyridazin-3-one] |
